Results from patent US8785637B2, “Carboxamide-substituted dyes for analytical applications” (ATTO-TEC GmbH, priority 2002, dated 2014).

Test: Solubility in water
Assay type: physicochemical
Conditions: sugar residue as R5 or/and R6

For CCN(CC)c1ccc2c(-c3ccccc3C(=O)N(C)CC(O)C(O)C(O)C(O)CO)c3ccc(=[N+](CC)CC)cc-3oc2c1 (stereo not shown) [Compound 51], the solubility in water was “high solubility in water”.
